Measurements published in patent US20220073554A1, “LINCOSAMIDE ANTIBIOTICS AND USES THEREOF” (President and Fellows of Harvard College, priority 2017, published 2022).
In brackets after ≈: the same amount, converted by molar mass. Read-outs that look alike come from different tables or passages of the source.

Experiments:
Type in all cases: cell-based
S. pyogenes ATCC 19615 = assay: MIC against S. pyogenes ATCC 19615; conditions: Streptococcus pyogenes, ATCC19615; S. pyogenes ATCC 19615; read-out: MIC
E. coli ATCC 15922 = assay: MIC against E. coli ATCC 15922; conditions: Escherichia coli, ATCC15922; E. coli ATCC 15922; read-out: MIC
E. faecalis ATCC 29212 = assay: MIC against E. faecalis ATCC 29212; conditions: Enterococcus faecalis
S. pneumoniae ATCC 49619 = assay: MIC against S. pneumoniae ATCC 49619; conditions: Streptococcus pneumoniae, ATCC49619; S. pneumoniae ATCC 49619; read-out: MIC
E. coli ATCC 25922 = assay: MIC against E. coli ATCC 25922; conditions: Escherichia coli, ATCC25922
S. aureus ATCC 29213 = assay: MIC against S. aureus ATCC 29213; conditions: Staphylococcus aureus
K. pneumoniae ATCC 10031 = assay: MIC against K. pneumoniae ATCC 10031; conditions: Klebsiella pneumoniae, ATCC10031
[1] = tested on: S. aureus MP-549 msr(a) USA 300; assay: MIC against S. aureus MP-549 msr(a) USA 300; conditions: Staphylococcus aureus, USA300, S. aureus MP-549 msr(a) USA 300
H. influenzae ATCC 49247 = assay: MIC against H. influenzae ATCC 49247; conditions: Haemophilus influenzae, ATCC49247
E. coli MP-9 ΔTolC = assay: MIC against E. coli MP-9 ΔTolC; conditions: Escherichia coli
[2] = tested on: E. coli MP-74 LptD mutant; assay: MIC against E. coli MP-74 LptD mutant; conditions: Escherichia coli
[3] = E. coli ATCC 25922, read-out: MIC
[4] = ATCC29213, S. aureus ATCC 29213, read-out: MIC

## CSC1O[C@H]([C@H](NC(=O)[C@@H]2[C@@H]3OCC=CC[C@H]3CN2C2CC2)[C@H](C)Sc2ccc(-c3cccnc3)cc2)C(O)[C@@H](O)[C@H]1O (stereo partly shown) [FSA-214009a]
S. pyogenes ATCC 19615
  MIC: 4 µg/mL (≈ 6.37 µM)
E. coli ATCC 15922
  MIC: > 64 µg/mL
E. faecalis ATCC 29212; ATCC29212, read-out: MIC
  MIC: > 64 µg/mL
S. pneumoniae ATCC 49619
  MIC: 4 µg/mL (≈ 6.37 µM)

## CCOC(=O)CCN1C[C@@H]2CC=CCO[C@H]2[C@H]1C(=O)N[C@H]([C@H](C)Sc1ccc(-c2cccnc2)cc1)[C@H]1OC(SC)[C@H](O)[C@H](O)C1O (stereo partly shown) [FSA-214009b]
S. pyogenes ATCC 19615
  MIC: 8 µg/mL (≈ 11.6 µM)
E. faecalis ATCC 29212; ATCC29212, read-out: MIC
  MIC: > 64 µg/mL
E. coli ATCC 25922; [3]
  MIC: > 64 µg/mL
S. aureus ATCC 29213; [4]
  MIC: ≥ 64 µg/mL

## CSC1O[C@H]([C@H](NC(=O)[C@H]2NC[C@@H]3CC=CCO[C@@H]32)[C@H](C)Cl)C(O)[C@@H](O)[C@H]1O (stereo partly shown) [FSA-504059]
K. pneumoniae ATCC 10031
  MIC: > 64 µg/mL
[1]
  MIC: 2 µg/mL (≈ 4.58 µM)
H. influenzae ATCC 49247
  MIC: > 64 µg/mL
E. coli MP-9 ΔTolC
  MIC: > 64 µg/mL
E. coli ATCC 25922
  MIC: > 64 µg/mL
S. aureus ATCC 29213; [4]
  MIC: 2 µg/mL (≈ 4.58 µM)
[2]
  MIC: > 64 µg/mL

## CSC1O[C@H]([C@H](NC(=O)[C@H]2NC[C@@H]3CCCCO[C@@H]32)[C@H](C)Cl)C(O)[C@@H](O)[C@H]1O (stereo partly shown) [FSA-504062]
K. pneumoniae ATCC 10031
  MIC: > 64 µg/mL
[1]
  MIC: 1 µg/mL (≈ 2.28 µM)
H. influenzae ATCC 49247
  MIC: > 64 µg/mL
E. coli MP-9 ΔTolC
  MIC: > 64 µg/mL
E. coli ATCC 25922
  MIC: > 64 µg/mL
S. aureus ATCC 29213; [4]
  MIC: 2 µg/mL (≈ 4.56 µM)
[2]
  MIC: > 64 µg/mL

## CSC1O[C@H]([C@H](NC(=O)[C@H]2NC[C@@H]3C=C(C#Cc4ccccc4)CCO[C@@H]23)[C@H](C)Cl)C(O)[C@@H](O)[C@H]1O (stereo partly shown) [FSA-510002]
E. coli MP-9 ΔTolC
  MIC: > 64 µg/mL
E. faecalis ATCC 29212; ATCC29212, read-out: MIC
  MIC: 2 µg/mL (≈ 3.72 µM)
E. coli ATCC 25922
  MIC: > 64 µg/mL
S. aureus ATCC 29213; [4]
  MIC: 0.5 µg/mL (≈ 0.931 µM)

## CSC1O[C@H]([C@H](NC(=O)[C@H]2NC[C@@H]3C=C(C#Cc4cccc(F)c4)CCO[C@@H]23)[C@H](C)Cl)C(O)[C@@H](O)[C@H]1O (stereo partly shown) [FSA-510003]
E. coli MP-9 ΔTolC
  MIC: > 64 µg/mL
E. faecalis ATCC 29212; ATCC29212, read-out: MIC
  MIC: 1 µg/mL (≈ 1.8 µM)
E. coli ATCC 25922
  MIC: > 64 µg/mL
S. aureus ATCC 29213; [4]
  MIC: 0.5 µg/mL (≈ 0.901 µM)

## CSC1O[C@H]([C@H](NC(=O)[C@H]2NC[C@@H]3CC(c4cccc5cnccc45)=CCO[C@H]32)[C@H](C)Cl)C(O)[C@@H](O)[C@H]1O (stereo partly shown) [FSA-510006]
S. pyogenes ATCC 19615
  MIC: 0.5 µg/mL (≈ 0.886 µM)
K. pneumoniae ATCC 10031
  MIC: > 64 µg/mL
H. influenzae ATCC 49247
  MIC: > 64 µg/mL
E. coli MP-9 ΔTolC
  MIC: > 64 µg/mL
S. pneumoniae ATCC 49619
  MIC: 1 µg/mL (≈ 1.77 µM)
E. coli ATCC 25922
  MIC: > 64 µg/mL
S. aureus ATCC 29213; [4]
  MIC: 8 µg/mL (≈ 14.2 µM)

## CSC1O[C@H]([C@H](NC(=O)[C@H]2NC[C@@H]3CC(NC4CC4)CCO[C@H]32)[C@H](C)Cl)C(O)[C@@H](O)[C@H]1O (stereo partly shown) [FSA-510011]
S. pyogenes ATCC 19615
  MIC: 2 µg/mL (≈ 4.05 µM)
K. pneumoniae ATCC 10031
  MIC: > 64 µg/mL
H. influenzae ATCC 49247
  MIC: > 64 µg/mL
E. coli MP-9 ΔTolC
  MIC: > 64 µg/mL
E. faecalis ATCC 29212; ATCC29212
  MIC: > 64 µg/mL
S. pneumoniae ATCC 49619
  MIC: 8 µg/mL (≈ 16.2 µM)
E. coli ATCC 25922
  MIC: > 64 µg/mL
[2]
  MIC: > 64 µg/mL

## CSC1O[C@H]([C@H](NC(=O)[C@H]2NC[C@@H]3CC(NCc4ccccc4F)CCO[C@H]32)[C@H](C)Cl)C(O)[C@@H](O)[C@H]1O (stereo partly shown) [FSA-510072]
S. pyogenes ATCC 19615
  MIC: 8 µg/mL (≈ 14.2 µM)
K. pneumoniae ATCC 10031
  MIC: > 64 µg/mL
H. influenzae ATCC 49247
  MIC: > 64 µg/mL
E. coli MP-9 ΔTolC
  MIC: > 64 µg/mL
E. faecalis ATCC 29212; ATCC29212
  MIC: > 64 µg/mL
S. pneumoniae ATCC 49619
  MIC: 32 µg/mL (≈ 56.9 µM)
E. coli ATCC 25922
  MIC: > 64 µg/mL
[2]
  MIC: > 64 µg/mL

## CSC1O[C@H]([C@H](NC(=O)[C@H]2NC[C@@H]3CC(NCc4cccc(F)c4)CCO[C@H]32)[C@H](C)Cl)C(O)[C@@H](O)[C@H]1O (stereo partly shown) [FSA-510073]
S. pyogenes ATCC 19615
  MIC: 2 µg/mL (≈ 3.56 µM)
K. pneumoniae ATCC 10031
  MIC: > 64 µg/mL
H. influenzae ATCC 49247
  MIC: > 64 µg/mL
E. coli MP-9 ΔTolC
  MIC: > 64 µg/mL
E. faecalis ATCC 29212; ATCC29212
  MIC: > 64 µg/mL
S. pneumoniae ATCC 49619
  MIC: 8 µg/mL (≈ 14.2 µM)
E. coli ATCC 25922
  MIC: > 64 µg/mL
[2]
  MIC: > 64 µg/mL

## CSC1O[C@H]([C@H](NC(=O)[C@H]2NC[C@@H]3CC(NCc4ccc(F)cc4)CCO[C@H]32)[C@H](C)Cl)C(O)[C@@H](O)[C@H]1O (stereo partly shown) [FSA-510074]
S. pyogenes ATCC 19615
  MIC: 8 µg/mL (≈ 14.2 µM)
K. pneumoniae ATCC 10031
  MIC: > 64 µg/mL
H. influenzae ATCC 49247
  MIC: > 64 µg/mL
E. faecalis ATCC 29212; ATCC29212
  MIC: > 64 µg/mL
E. coli ATCC 25922
  MIC: > 64 µg/mL
[2]
  MIC: > 64 µg/mL

## CSC1O[C@H]([C@H](NC(=O)[C@H]2NC[C@@H]3CC(c4ccc(C)cc4)=CCO[C@H]32)[C@H](C)Cl)C(O)[C@@H](O)[C@H]1O (stereo partly shown) [FSA-511019]
S. pyogenes ATCC 19615
  MIC: 0.195 µg/mL (≈ 0.37 µM)
K. pneumoniae ATCC 10031; K. pneumoniae ATCC 10031, read-out: MIC
  MIC: > 64 µg/mL
[1]
  MIC: 0.5 µg/mL (≈ 0.949 µM)
E. faecalis ATCC 29212; ATCC29212, read-out: MIC
  MIC: 4 µg/mL (≈ 7.59 µM)
E. coli ATCC 25922; [3]
  MIC: > 64 µg/mL
S. aureus ATCC 29213; ATCC29213
  MIC: 0.5 µg/mL (≈ 0.949 µM)
